Some results are limits rather than exact numbers.

The target of test [1] is Vascular endothelial growth factor receptor 1 (Homo sapiens, UniProt P17948). The test is described as follows: In Vitro Src Kinase Inhibition Test. The text has this: (§1) This assay determines the ability of test compounds to inhibit Src kinase activity that catalyzes the transfer of the terminal phosphate to the immobilized poly (Glu,Tyr) substrate detected using anti-phosphotyrosine monoclonal antibody conjugated to alkaline phosphatase. IC50 values for compound enzyme inhibition were obtained using KC3 Kineticalc software (Bio-Tek Instruments) following subtraction of the blank values.
Sequence of Vascular endothelial growth factor receptor 1 (P17948 whole entry): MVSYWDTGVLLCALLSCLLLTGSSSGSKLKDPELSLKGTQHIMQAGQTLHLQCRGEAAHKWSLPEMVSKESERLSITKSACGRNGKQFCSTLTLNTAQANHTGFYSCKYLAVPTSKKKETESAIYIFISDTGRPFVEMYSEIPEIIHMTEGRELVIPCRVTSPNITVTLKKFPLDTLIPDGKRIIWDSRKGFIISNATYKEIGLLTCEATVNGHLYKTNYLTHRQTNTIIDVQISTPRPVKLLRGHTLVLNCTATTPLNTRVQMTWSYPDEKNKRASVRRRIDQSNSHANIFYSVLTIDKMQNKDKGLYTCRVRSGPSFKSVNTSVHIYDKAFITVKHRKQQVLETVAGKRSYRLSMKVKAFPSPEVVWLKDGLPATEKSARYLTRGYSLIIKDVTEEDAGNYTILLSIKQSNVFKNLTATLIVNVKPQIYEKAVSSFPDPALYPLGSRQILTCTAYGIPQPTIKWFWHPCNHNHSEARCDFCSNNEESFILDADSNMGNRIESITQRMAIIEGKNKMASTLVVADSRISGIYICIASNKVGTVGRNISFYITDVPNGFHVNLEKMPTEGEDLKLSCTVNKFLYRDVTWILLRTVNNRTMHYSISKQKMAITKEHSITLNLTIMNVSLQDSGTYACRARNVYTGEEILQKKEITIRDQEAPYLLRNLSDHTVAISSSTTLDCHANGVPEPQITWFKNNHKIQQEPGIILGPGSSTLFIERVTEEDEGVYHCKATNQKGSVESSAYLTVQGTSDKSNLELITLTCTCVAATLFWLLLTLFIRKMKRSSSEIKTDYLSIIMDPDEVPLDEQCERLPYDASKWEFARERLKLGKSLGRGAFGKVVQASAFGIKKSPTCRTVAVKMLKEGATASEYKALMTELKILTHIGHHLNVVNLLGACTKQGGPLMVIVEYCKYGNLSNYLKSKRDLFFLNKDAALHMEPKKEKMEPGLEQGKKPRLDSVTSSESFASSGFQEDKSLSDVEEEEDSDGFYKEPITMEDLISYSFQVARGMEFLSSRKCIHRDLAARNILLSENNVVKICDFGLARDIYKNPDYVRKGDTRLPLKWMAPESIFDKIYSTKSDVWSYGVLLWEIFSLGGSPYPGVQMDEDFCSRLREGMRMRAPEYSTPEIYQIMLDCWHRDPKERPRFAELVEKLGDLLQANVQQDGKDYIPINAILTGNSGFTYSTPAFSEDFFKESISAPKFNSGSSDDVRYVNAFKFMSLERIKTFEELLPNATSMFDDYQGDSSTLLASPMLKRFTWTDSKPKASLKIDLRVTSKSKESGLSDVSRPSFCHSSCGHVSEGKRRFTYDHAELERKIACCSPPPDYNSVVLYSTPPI

In test [2] the target is Fibroblast growth factor receptor 1 (Homo sapiens, UniProt P11362). The test is described as follows: In Vitro Src Kinase Inhibition Test.
Sequence of Fibroblast growth factor receptor 1 (P11362 whole entry): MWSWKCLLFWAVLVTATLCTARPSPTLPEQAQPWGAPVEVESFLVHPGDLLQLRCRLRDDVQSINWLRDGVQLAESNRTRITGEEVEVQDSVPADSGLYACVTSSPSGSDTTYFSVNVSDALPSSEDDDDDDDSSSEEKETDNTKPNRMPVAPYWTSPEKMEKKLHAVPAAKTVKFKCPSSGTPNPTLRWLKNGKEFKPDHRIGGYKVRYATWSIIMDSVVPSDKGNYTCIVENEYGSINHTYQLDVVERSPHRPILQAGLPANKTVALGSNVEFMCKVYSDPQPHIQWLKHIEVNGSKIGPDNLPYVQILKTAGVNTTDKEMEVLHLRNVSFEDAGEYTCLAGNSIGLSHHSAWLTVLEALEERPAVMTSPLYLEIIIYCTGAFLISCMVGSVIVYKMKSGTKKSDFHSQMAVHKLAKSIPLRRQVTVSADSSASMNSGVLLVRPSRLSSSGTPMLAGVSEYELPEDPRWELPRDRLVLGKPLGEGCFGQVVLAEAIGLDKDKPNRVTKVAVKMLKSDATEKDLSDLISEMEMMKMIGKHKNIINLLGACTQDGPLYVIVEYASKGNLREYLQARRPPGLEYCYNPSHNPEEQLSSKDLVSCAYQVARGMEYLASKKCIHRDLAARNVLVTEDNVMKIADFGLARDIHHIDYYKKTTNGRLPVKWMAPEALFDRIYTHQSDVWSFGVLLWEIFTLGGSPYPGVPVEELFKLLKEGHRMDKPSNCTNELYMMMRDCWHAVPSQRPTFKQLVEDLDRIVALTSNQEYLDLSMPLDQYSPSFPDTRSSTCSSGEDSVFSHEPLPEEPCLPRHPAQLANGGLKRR
Text: as §1

Test [3] concerns the target Proto-oncogene tyrosine-protein kinase Src (Homo sapiens, UniProt P12931). The test can be described thus: In Vitro Src Kinase Inhibition Test. The settings on record: pH 7.4; 22 °C.
Text: as §1

In test [4] the target is T1, Vascular endothelial growth factor receptor 2 (Homo sapiens, UniProt P35968). The test can be described thus: VEGF-R Kinase Inhibition Assay. Conditions: 25 °C. As to the method: An ELISA assay was used to determine the ability of inhibitor to inhibit VEGF-RRTK activity. The compounds were incubated with enzyme 20 min at room temperature, with 2uM ATP in 96-well plates coated with a poly(Glu, Ala, Tyr) 6:3:1 random copolymer substrate. Phosphorylated tyrosine was then detected by sequential in cubation with anti-phosphotyrosine antibody. IC50 data were interpolated by nonlinear regression using Microcal Origin software.
T1 sequence (P35968 whole entry): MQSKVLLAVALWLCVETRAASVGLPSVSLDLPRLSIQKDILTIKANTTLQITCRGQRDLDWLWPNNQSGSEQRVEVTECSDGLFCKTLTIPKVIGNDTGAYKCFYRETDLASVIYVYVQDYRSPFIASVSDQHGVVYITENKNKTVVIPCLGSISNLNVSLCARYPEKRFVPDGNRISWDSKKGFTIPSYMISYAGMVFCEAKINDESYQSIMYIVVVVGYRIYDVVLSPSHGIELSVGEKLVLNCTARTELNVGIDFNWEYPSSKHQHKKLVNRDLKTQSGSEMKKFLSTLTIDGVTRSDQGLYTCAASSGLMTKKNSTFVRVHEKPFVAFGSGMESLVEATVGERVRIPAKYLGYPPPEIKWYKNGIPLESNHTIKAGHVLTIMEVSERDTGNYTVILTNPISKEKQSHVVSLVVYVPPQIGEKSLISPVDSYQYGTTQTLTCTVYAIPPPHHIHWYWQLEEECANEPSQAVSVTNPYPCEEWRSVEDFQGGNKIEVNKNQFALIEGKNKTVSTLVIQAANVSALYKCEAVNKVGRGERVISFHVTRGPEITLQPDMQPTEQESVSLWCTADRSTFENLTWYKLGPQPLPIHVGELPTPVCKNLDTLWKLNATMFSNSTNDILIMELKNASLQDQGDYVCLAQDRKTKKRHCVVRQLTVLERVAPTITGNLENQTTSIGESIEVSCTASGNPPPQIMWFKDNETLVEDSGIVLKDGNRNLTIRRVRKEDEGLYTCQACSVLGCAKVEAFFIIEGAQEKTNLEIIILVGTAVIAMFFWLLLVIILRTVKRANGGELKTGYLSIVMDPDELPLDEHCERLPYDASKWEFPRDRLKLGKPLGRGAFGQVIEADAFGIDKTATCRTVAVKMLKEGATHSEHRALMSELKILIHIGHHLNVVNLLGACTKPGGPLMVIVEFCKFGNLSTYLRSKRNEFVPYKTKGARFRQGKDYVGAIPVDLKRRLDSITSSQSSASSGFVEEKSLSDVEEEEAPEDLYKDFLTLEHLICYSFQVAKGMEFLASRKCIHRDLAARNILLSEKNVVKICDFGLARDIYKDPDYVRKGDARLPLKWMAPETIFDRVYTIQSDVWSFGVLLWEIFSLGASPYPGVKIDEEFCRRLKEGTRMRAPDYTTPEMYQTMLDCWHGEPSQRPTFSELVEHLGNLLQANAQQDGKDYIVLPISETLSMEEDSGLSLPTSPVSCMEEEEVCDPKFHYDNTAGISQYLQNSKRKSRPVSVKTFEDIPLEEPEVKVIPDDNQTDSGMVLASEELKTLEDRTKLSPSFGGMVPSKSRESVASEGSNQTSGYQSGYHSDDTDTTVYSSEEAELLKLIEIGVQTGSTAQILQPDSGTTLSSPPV

Test [5] has as its target T1, Vascular endothelial growth factor receptor 2. The test is described as follows: In Vitro Src Kinase Inhibition Test.
Text: as §1

Sequence of Proto-oncogene tyrosine-protein kinase Src (P12931 2-536 limits assumed): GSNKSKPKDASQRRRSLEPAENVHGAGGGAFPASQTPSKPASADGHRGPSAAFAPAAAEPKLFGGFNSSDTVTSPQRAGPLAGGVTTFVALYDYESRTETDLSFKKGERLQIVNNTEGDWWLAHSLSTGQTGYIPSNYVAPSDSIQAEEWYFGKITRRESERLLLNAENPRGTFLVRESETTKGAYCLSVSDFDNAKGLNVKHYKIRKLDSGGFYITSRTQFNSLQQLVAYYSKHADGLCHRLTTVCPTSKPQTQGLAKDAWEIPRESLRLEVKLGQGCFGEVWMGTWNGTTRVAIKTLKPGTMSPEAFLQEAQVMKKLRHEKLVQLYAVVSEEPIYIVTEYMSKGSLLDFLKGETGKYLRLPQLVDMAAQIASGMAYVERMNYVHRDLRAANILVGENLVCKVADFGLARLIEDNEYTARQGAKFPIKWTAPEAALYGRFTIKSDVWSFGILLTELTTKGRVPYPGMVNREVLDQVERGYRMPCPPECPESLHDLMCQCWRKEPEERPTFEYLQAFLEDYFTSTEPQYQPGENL

Turning to `COc1cc2c(Nc3c(Cl)ccc4c3OCO4)ncnc2cc1OCc1ccnc(C#N)c1` [4-[({4-[(5-chloro-2H-1,3-benzodioxol-4-yl)amino]-6-methoxyquinazolin-7-yl}oxy)methyl]pyridine-2-carbonitrile], the IC50 in test [1] and in test [2] was above 100 µM each time. With `COc1ccc(Cl)c(Nc2ncnc3cc(OCC4CCN(C)CC4)c(OC)cc23)c1` [AZD0530 analogue 35], the IC50 in test [3] was 0.01 µM; in test [4], 0.67 µM.

Regarding `COc1cc2c(Nc3c(Cl)ccc4c3OCO4)ncnc2cc1OCCCN1CCCCC1` [BMCL182776 Compound 1], the IC50 in test [5] was 21.7 µM.
